# In patent US5686458A, “Quinazoline deriviates for treating peptic ulcer” (Yuhan Corporation, priority 1992, dated 1997):
# pIC50, pKi: −log10 of the molar value. Counter-ions that a name gives are not always drawn.
# Experiments:
# [1] = target: T1, H^+ /K^+ ATPase, gastric vesicles (Sus scrofa, UniProt P19156); assay: Reversibility of inhibition, Dilution and Washout method (Experiment 4-3); format: biochemical, pig
# T1 construct: Gastric vesicles were prepared from pig stomach; from tissue; host or cells: pig stomach, lyophilized gastric vesicles
# Experimental: The vesicles were lyophilized and kept at -70° C.
# To all […] groups, was added 100 μl of lyophilized vesicles prepared in Experiment 4-1 at the concentration of 100 μg protein 1 ml. Then, 5 mM Pipes/Tris buffer(pH 6.4 ) was added to the three groups until the volume of test tubes became 150 μl. After the preincubation for 15 minutes, H^+ /K^+ ATPase activity was measured in accordance with the same procedures as in Experiment 4-2. The concentrations of the test substances as indicated above are the final concentrations.
# After the completion of preincubation, each group was diluted 50 times with 5 mM Pipes/Tris buffer(pH 6.4), and then centrifuged for 60 minutes by means of Beckman ultracentrifuge(Model L8-80). The supernatant was discarded and the pellet was suspended with 5 mM Pipes/Tris buffer pH 6.4 until the volume became the same as the preincubation volume.
# [2] = target: T2, H^+ /K^+ ATPase (proton pump), gastric vesicles (Sus scrofa, UniProt P19156); assay: Determination of H+/K+ ATPase activity, Lineweaver-Burk kinetics versus K+ (Experiment 4-2); format: biochemical, pig
# T2 construct: Gastric vesicles were prepared from pig stomach; from tissue; host or cells: pig stomach, lyophilized gastric vesicles
# Experimental: Gastric vesicles were prepared from pig stomach by the method described in Saccomani G., et al., J. Biol. Chem. 250, 4802-4809 (1975). The vesicles were lyophilized and kept at -70° C. The protein content was determined by the method of Lowry et al., using bovine serum albumin as standard[see Lowry, O. H., Rosebrough, N. J. and Randall, R. J., J. Biol. Chem. 193, 265-275 (1951)].
# Test tubes were divided into 4 groups, each having 3 test tubes. As a control group, group 1 was added with the 10 μl of DMSO. Groups 2, 3 and 4 were administered with the compound prepared in example 34 whose final concentration are 0.17 μM, 0.33 μM and 0.67 μM, respectively. Each group was further divided into 3 small groups, in which enzymes were activated by ATP; ATP and Mg^++; and ATP, Mg^++ and K^+, respectively.
# To all of the test tubes, were added 100 μl of lyophilized vesicles prepared at the concentration of 25 μg protein/ml and then 90 μl of 5 mM Pipes/Tris buffer pH 7.0. The compound prepared in Example 34 was added to each Group until the final concentration thereof became 0.17, 0.33 or 0.67 μM, respectively, They were preincubated for 15 minutes.
# 50 μl of ATP(3 mM) was added to each of the four Groups and the 50 μl of MgCl2 (2 mM) was added only to the 2nd and 3rd small groups of all Groups. Further, to the 3rd small groups of all Groups, were added 50 μl of KCl solution of various concentrations(from 0.1 mM to 30 mM) and then 150μl of Pipes/Tris buffer of pH 7.0. To the rest small groups, Pipes/Tris buffer of pH 7.0 was added until the volume became the same as that of the 3rd small group.
# The test tube's were incubated at 37° C. for 30 minutes and then the reaction was terminated by adding 25% cold trichloroacetic acid solution. They were centrifuged by means of a microcentrifuge and the supernatant was taken up for the measurement of the released inorganic phosphate content by an automatic analyzer(CIBA CORNING, Express 550).
# In accordance with the same procedures as above, except that 15 and 30 μm of omeprazole and 0.75, 1.5 and 3.0 μm of SK&F96067 were used as comparative substances, released inorganic phosphate content was measured.
# The released inorganic phosphate contents of the three small groups were considered as the activity of H^+ /K^+ ATPase at each of the concentrations employed. The specific activity of H^+ /K^+ ATPase was calculated from the following equation:
# Specific activity=(A-C)-(B-C) . . . (V)
# A is the activity of enzyme activated by ATP, Mg^++ and , K^+ ;
# B is the activity of enzyme activated by ATP and M^++ and
# C is the activity of enzyme activated by ATP.
# The specific activity, thus calculated, of Groups 1, 2, 3 and 4 which employed DMSO and the compound of Example 34 at 3 different concentrations were then plotted with respect to the concentration of KCl in FIG. 1 according to the method of Lineweaver-Burk, wherein .box-solid., .quadrature. and .largecircle. represent the respective concentrations of the compound of Example 34 of 0.67 μM, 0.33 μM and 0.17 μM; and .oval-solid. represents concentration of the DMSO compound. FIG. 2 depicts the Lineweaver-Burk plot of the specific activities obtained from SK&F96067, wherein .box-solid., .quadrature. and .largecircle. represent its respective concentrations of 3.0 μM, 1.5 μM, 0.75 μM; and .oval-solid. represents concentration of the DMSO compound. FIG. 3 illustrates the Lineweaver-Burk plot of the specific activities obtained from omeprazole, wherein .oval-solid. and .quadrature. represent its concentrations of 15 μM and 30 μM; and .largecircle. represents the concentration of DMSO.
# [3] = test system: gastric secretion stimulated by pentagastrin; assay: Inhibition of gastric secretion stimulated by pentagastrin (Experiment 3-2); format: in vivo, Sprague-Dawley male rats; settings: intravenous
# Experimental: The same procedures as in Experiment 3-1 were carried out, except that as a secretion stimulating substance, pentagastrin was infused into the left jugular vein of the rats at a dosage of 24 μg/2 ml/200 g/hr.
# [4] = test system: gastric secretion stimulated by histamine; assay: Anti-secretory effects when gastric secretion is stimulated by histamine (Experiment 3-1); format: in vivo, Sprague-Dawley male rats; settings: intravenous
# Experimental: In accordance with the method [see Ghosh and Shild, et al., British Journal of pharmacology 13:54-61 (1958)], anti-secretory effects of the test substances were studied in this Experiment. Sprague-Dawley male rats having a body weight of 200±20 g were divided into 3 groups, Group 1 to be administered with the compound of Example 34, Group 2 to be administered with SK&F96067[see Keeling, D. […] The rats of each Group, deprived of food for 24 hours before the experiment with free access to water, were anesthetized by intraperitoneally administering of 1.5 g/kg of 20% aqueous urethane solution and positioned on the test plate which was heated and maintained at 37° C. The anesthetized rats were cannulated at the right jugular vein for the administration of the test compounds and the left jugular vein for the administration of stimulating substances. After an abdominal incision, tubes were inserted into the esophagus and duodenum, each of which was connected with saline in a thermostat and a fraction collector. […] To the left jugular vein, histamine was administered as a gastric secretion stimulator. […] The gastric secretion inhibition (%) of the test compounds was calculated from the following equation: The gastric secretion inhibition (%) of the test compounds =(A-C)/(A-B)×100 . . . (IV) in which […]
# [5] = target: T3, Proton Pump (H^+ /K^+ ATPase) (Oryctolagus cuniculus, UniProt P27112); assay: Inhibition of Proton Pump (H+/K+ ATPase) Activity, in vitro enzyme reaction (Experiment 1); format: biochemical, New Zealand white rabbit; settings: for Effect ratio: IC50 of Omeprazole / IC50 of test compound; for pIC50: K+-stimulated H+/K+ ATPase activity, rabbit gastric microsomes, pH 7.2, 37° C., 15 min prereaction, 30 min reaction, read-out: IC50 of test compound, inhibition (50%) of the proton pump activity
# T3 construct: The microsomes thus obtained were used as an enzyme source of the in vitro enzyme reaction study of proton pump; from tissue; host or cells: rabbit stomach, mucosal scrapings, microsomes (180,000 g pellet)
# How it was run: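 Rabbit gastric mucosal microsomes (100 μg/ml) in 50 mM Tris-HCl pH 7.2 with 8 mM MgCl2, 100 mM KCl and 20 mM NH4Cl were preincubated with compound for 15 min at 37 °C. Reaction ran 30 min at 37 °C with 6.7 mM ATP; released phosphate was measured. K+-stimulated activity (Mg/K minus Mg alone) gave IC50 via Litchfield-Wilcoxon.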
# [6] = test system: gastric secretion; assay: Inhibition of Gastric Secretion, pylorus-ligated rats (Experiment 2); format: in vivo, Sprague-Dawley rats; settings: relative to omeprazole (equation III), 20 mg/kg intraduodenally, pylorus-ligated rats, 5 hours
# How it was run: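 Sprague-Dawley rats (170±10 g, n=5/group), fasted 24 h, pylorus-ligated under ether; compounds given intraduodenally at 20 mg/kg in 30% aqueous PEG 400. Gastric juice collected after 5 h, volume and acidity measured; relative volume, acid concentration and acid output computed versus vehicle and omeprazole groups.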
# T3 sequence (P27112 whole entry): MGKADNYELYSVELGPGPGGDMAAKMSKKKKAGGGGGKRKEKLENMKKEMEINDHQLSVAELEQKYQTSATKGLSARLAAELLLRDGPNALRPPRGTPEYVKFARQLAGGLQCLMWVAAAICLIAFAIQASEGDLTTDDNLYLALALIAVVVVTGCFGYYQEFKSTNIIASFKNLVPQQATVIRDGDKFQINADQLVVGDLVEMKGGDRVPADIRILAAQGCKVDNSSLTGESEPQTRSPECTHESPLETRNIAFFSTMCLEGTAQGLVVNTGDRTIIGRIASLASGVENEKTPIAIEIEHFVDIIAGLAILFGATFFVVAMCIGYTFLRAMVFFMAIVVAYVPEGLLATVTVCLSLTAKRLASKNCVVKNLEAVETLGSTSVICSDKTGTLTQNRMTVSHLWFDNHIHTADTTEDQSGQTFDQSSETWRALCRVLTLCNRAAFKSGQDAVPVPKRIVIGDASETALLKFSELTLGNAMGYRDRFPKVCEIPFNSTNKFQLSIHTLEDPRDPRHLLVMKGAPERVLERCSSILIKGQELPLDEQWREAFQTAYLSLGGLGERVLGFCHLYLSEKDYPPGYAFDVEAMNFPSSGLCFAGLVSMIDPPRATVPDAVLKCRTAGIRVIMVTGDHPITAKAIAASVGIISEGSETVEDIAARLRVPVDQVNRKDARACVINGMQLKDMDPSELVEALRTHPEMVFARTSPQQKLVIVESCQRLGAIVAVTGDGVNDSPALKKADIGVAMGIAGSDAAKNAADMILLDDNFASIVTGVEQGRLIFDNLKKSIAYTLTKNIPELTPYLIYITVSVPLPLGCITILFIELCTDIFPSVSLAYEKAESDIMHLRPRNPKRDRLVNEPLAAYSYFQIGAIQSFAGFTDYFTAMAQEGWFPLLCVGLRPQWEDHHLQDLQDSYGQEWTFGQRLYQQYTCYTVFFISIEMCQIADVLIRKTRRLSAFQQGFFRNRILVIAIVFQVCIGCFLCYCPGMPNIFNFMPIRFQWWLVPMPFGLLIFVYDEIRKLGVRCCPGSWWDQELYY
# T3 sequence (P18597 whole entry partner): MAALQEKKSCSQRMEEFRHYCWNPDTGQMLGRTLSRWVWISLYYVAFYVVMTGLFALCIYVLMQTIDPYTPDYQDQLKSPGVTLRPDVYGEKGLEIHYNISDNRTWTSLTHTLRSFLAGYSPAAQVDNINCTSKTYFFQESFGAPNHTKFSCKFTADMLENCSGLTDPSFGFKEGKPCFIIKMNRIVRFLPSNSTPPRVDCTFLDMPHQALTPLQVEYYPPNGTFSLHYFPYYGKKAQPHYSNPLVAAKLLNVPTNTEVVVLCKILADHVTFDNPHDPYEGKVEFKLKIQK
# T2 sequence (P19156 2-1034 limits assumed): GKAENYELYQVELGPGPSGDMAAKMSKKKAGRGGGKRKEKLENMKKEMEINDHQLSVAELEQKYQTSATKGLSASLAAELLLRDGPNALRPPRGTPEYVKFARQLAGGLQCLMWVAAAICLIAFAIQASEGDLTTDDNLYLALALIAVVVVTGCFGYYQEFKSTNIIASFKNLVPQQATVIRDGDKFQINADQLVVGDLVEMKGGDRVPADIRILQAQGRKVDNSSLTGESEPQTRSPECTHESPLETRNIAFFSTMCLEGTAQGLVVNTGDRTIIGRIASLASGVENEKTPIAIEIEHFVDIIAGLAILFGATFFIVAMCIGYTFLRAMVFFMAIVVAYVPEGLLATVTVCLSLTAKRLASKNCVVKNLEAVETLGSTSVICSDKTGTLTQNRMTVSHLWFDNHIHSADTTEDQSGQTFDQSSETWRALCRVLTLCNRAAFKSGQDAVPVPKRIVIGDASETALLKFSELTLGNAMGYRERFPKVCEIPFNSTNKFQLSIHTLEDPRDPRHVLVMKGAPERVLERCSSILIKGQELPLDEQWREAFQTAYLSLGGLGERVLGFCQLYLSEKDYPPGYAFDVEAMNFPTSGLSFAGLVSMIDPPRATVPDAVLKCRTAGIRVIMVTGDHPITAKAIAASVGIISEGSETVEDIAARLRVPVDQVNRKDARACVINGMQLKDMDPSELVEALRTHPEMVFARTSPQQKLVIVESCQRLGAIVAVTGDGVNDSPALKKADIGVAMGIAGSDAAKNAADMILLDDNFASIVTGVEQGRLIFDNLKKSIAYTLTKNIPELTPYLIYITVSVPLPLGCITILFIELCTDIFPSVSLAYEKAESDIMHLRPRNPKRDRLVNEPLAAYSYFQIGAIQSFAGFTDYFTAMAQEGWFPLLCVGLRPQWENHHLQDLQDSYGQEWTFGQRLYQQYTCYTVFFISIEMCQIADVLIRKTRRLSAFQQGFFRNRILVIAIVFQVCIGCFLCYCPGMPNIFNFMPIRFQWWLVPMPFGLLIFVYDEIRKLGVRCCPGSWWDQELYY
# T2 sequence (P18434 whole entry partner): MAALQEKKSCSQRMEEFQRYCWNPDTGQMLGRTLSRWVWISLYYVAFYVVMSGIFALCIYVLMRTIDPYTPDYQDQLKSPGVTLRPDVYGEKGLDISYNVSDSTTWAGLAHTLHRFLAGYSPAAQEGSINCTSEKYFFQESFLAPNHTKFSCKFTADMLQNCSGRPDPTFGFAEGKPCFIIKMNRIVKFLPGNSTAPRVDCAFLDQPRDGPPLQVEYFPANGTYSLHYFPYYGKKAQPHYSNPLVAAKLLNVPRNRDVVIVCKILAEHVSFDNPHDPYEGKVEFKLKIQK
# T1 sequence (P19156 2-1034 limits assumed): as the sequence (P19156 2-1034 limits assumed) above
# T1 sequence (P18434 whole entry partner): as the sequence (P18434 whole entry partner) above
Compound,Effect ratio [5],pIC50 [5],Relative Acid Output [6],further results
CCCC(=O)c1cnc2c(OC)cccc2c1Nc1ccccc1C [SK&F96067],,,,"Reversibility of the inhibition of the enzyme activity ([1]; conclusion from Table 4): reversible; Inhibition of H+/K+ ATPase activity before Dilution and Washout ([1]; pH 6.4, Example 34 at 6 μM, omeprazole and SK&F96067 at 60 μM): 80%; Competitive inhibition with K+ at the K+ binding site of proton pump ([2]; Lineweaver-Burk plot, KCl 0.1 to 30 mM): inhibited competitively with K^+; pKi ([2]; Lineweaver-Burk, versus K+, pH 7.0): 6.15; The gastric secretion inhibition ([3]; 1.0 mg/kg): 32.6%; The gastric secretion inhibition ([3]; 3.0 mg/kg): 64.0%; The gastric secretion inhibition ([3]; 5.0 mg/kg): 77.3%; ED50 ([3]; Rattus norvegicus): 1.85 mg/kg; The gastric secretion inhibition (%) ([4]; 0.5 mg/kg): 29.8%; The gastric secretion inhibition (%) ([4]; 1.0 mg/kg): 57.1%; The gastric secretion inhibition (%) ([4]; 3.0 mg/kg): 75.9%; ED50 ([4]; Rattus norvegicus, read-out: ED50, gastric secretion inhibition): 0.96 mg/kg"
"COc1cccc2c(N3CCc4ccccc4C3(C)C)nc(Nc3ccc(F)cc3C)nc12 [Example 51, 2-(4-Fluoro-2-Methylphenyl-1-Amino)-8-Methoxy-4-(1,1-Dimethyl-1,2,3,4-Tetrahydroisoquinoline-2-Yl)Quinazoline Hydrochloride]",1.21,5.21,0.82,
"COc1cccc2c(N3CCc4ccccc4C3C(F)(F)F)nc(Nc3ccc(F)cc3C)nc12.Cl (stereo not drawn) [Example 42, 2-(4-Fluoro-2-Methylphenyl-Amino)-8-Methoxy-4-(1-Trifluoromethyl-1,2,3,4-Tetrahydroisoquinoline-2-Yl)Quinazoline Hydrochloride]",< 0.18,4.90,0.42,

# Continued, in another order:
Effect ratio [5],pIC50 [5],Compound,Relative Acid Output [6],further results
6.92,5.92,"COc1cccc2c(N3CCc4ccccc4C3)nc(Nc3ccccc3)nc12.Cl [Example 28, 8-Methoxy-2-(phenylamino)-4-(1,2,3,4-Tetrahydroisoquinoline-2-Yl)Quinazoline Hydrochloride]",0.64,
1.97,5.54,"Cc1cc(F)ccc1Nc1nc(N2CCc3cccc4c3C2CC4)c2ccccc2n1.Cl (stereo not drawn) [Example 27, 2-(4-Fluoro-2-Methylphenyl-Amino)-4-(1,8-Ethano-1,2,3,4-Tetrahydroisoquinoline-2-Yl) Quinazoline Hydrochloride]",0.30,
